Source: ChEMBL document CHEMBL4483862, “Open-source discovery of chemical leads for next-generation chemoprotective antimalarials” (2018)

Tested on: Plasmodium berghei
Assay: Luciferase/luciferin-expressing antifolate-resistant parasites were used to infect a culture of HepG2 cells that were pre-incubated with compounds. Infected hepatocytes emit light due to the luciferase reaction. Assay results are presented as the percent inhibition of light emission compared to control. […]
Type: functional
Conditions: sporozoite; for IC50: read-out: LUCIFERASE INFECTION ASSAY - IC50; for IC90: read-out: LUCIFERASE INFECTION ASSAY - IC90

Compound	IC50 [µM]	IC90 [µM]
COCCn1c(SC(C)C(=O)NCC2CCCO2)nc2scc(-c3ccc(F)cc3)c2c1=O (stereo unspecified)	> 10	> 10
Cc1[nH]c2ccc(C(=O)OC(C)C(=O)NCc3ccccc3)cc2c1C (stereo unspecified)	3.57	8.96
CC(C)CN(C(=O)CN(C)C(=O)c1ccco1)c1c(N)n(CC(C)C)c(=O)[nH]c1=O	> 10	> 10
CCCCn1c(N)c(N(CC(C)C)C(=O)c2cc(Br)c(Br)s2)c(=O)[nH]c1=O	8.31	9.14
O=c1cc(CNC(CCCc2ccccc2)c2ccccc2)nc2ccc(Cl)cn12 (stereo unspecified)	> 10	> 10
Cc1ccc(CN(C)C(=O)CSc2nnc(-c3ccc(C(C)(C)C)cc3)o2)c(C)c1	> 10	> 10
CCOc1ccc(OCC)c(NC(=O)/C=C/c2c(C)nn(-c3ccccc3)c2C)c1	9.19	> 10
CON(C)S(=O)(=O)c1ccc(NC(=O)COc2cccc(C(C)(C)C)c2)cc1	> 10	> 10
O=[N+]([O-])c1ccc(Nc2nc3ccc(Cl)cc3o2)cc1	> 10	> 10
COc1cccc(/C=C/C(=O)Nc2nc3c(s2)CN(C(=O)OC(C)(C)C)CC3)c1	0.387	0.475
CC(Sc1nc2ccccc2c(=O)n1CCCN1CCOCC1)c1ccc(F)cc1 (stereo unspecified)	> 10	> 10
CCOC(=O)c1c(NC(=O)CN(CC(C)C)C2CC2)sc(C(=O)Nc2ccc(C)cc2C)c1C	4.24	5.26
COc1ccc(-c2nc(C)c(C(=O)NCc3ccc(-n4cccn4)nc3)s2)cc1	> 10	> 10
O=C(NC(CCCc1ccccc1)c1ccccc1)c1ccc(N2CCCS2(=O)=O)cc1 (stereo unspecified)	5.56	5.73
CC(C)CNC(=O)CN1CCN(c2nc(-c3cccs3)nc3sc4c(c23)CCC4)CC1	3.4	3.94
O=C(Nc1cccc(NC(=O)c2cc(C3CC3)nc3c2nc2n3CCCCC2)c1)c1ccco1	> 10	> 10
COc1ccc(Cl)cc1NC(=O)CCN1CCN(c2ncc(C(F)(F)F)cc2Cl)CC1	4.95	9.88
COc1ccc(/C=C/C(=O)c2cc(F)c(Cl)cc2Cl)c(OC)c1OC	9.74	> 10
O=C(Nc1ncccc1O)c1ccc(S(=O)(=O)NCCc2cccs2)cc1	0.134	0.176
CSc1ccc(N2CC(C(=O)N(C)C(C)c3cccc([N+](=O)[O-])c3)CC2=O)cc1 (stereo unspecified)	> 10	> 10

Compound	IC50 [µM]	IC90 [µM]
COCCCn1c(C)cc(C(=O)CSc2nc(C)nc3c2c(=O)n(C)c(=O)n3CC(C)C)c1C	> 10	> 10
CNC(=O)c1ccc(/C=C/C(=O)c2ccc3cccc4c3c2CC4)cc1	> 10	> 10
CC(=O)N1CCN(S(=O)(=O)c2ccc(C(=O)NCCCCCCC(C)C)cc2)CC1	> 10	> 10
Cc1cc(C(=O)CN(C)Cc2nc(=O)c3ccccc3[nH]2)c(C)n1CC1COc2ccccc2O1 (stereo unspecified)	0.371	> 10
C/C=C/c1ccc(OCC(O)Cn2c(=O)c(-c3ccccc3)[n+]([O-])c3ccccc32)c(OC)c1 (stereo unspecified)	1.21	9.19
Cc1nn(-c2ccccc2)nc1C(=O)Nc1nc(CN2CCCCCC2)cs1	> 10	> 10
CC(C)CCCC(C)NC(=O)CSCc1cccc(C(=O)O)c1 (stereo unspecified)	> 10	> 10
CCc1noc(C)c1C(=O)OCc1csc(N(C(C)=O)c2ccccc2)n1	> 10	> 10
CCCn1c(N)c(N2CCCCC2)c(=O)n(Cc2nc(N)nc(Nc3ccc(C)cc3)n2)c1=O	3.72	4.61
COc1cc(OC)c(C(=O)/C=C/c2cccnc2)cc1Cl	3.3	3.76
CCC1c2ccsc2CCN1C(=O)C1CCN(S(=O)(=O)c2ccc(Cl)c([N+](=O)[O-])c2)CC1 (stereo unspecified)	> 10	> 10
COC(=O)c1occc1/C=C/C(=O)c1ccc(OCc2ccccc2)cc1	> 10	> 10
O=C(CSc1nc2cc(S(=O)(=O)Nc3ccccc3Cl)ccc2o1)NCc1ccccc1	> 10	> 10
Cc1ccc(-n2c(=O)c3ccccc3n3c(SCc4nnnn4C4CC4)nnc23)c(C)c1	> 10	> 10
CC(C)(Oc1ccc(Cl)cc1)C(=O)Nc1ccc(F)c(S(=O)(=O)N2CCOCC2)c1	> 10	> 10
CCOC(=O)/C(=C\c1cccc(Br)c1)C1=Nn2c(nnc2-c2ccc(OC)cc2)SC1	> 10	> 10
Cc1nc(=O)c(CCC(=O)Nc2ncc(Cc3cccc(C)c3Cl)s2)c(C)[nH]1	8.8	> 10
CC(C)CCn1c(SCC(=O)N2CCc3ccccc3C2)nc2ccccc2c1=O	> 10	> 10
Cc1nn(Cc2ccc(F)cc2)c2sc(C(=O)NCc3nnc4ccc(C(F)(F)F)cn34)cc12	> 10	> 10
C=CCn1c(-c2ccoc2C)nn(CN(C)Cc2nc3ccccc3s2)c1=S	> 10	> 10

Compound	IC50 [µM]	IC90 [µM]
Cc1nn(-c2ccccc2)nc1C(=O)NCc1ccccc1-c1ccc(CN(C)C)cc1	3.7	5.83
CN(C1CCCCCC1)S(=O)(=O)c1ccc(-n2ncc(Cl)c(Cl)c2=O)cc1	3.55	5.25
O=C(NC1CC1)c1cccc(NC(C(=O)Nc2cc(C(F)(F)F)ccc2Cl)c2ccccc2)c1 (stereo unspecified)	9.94	> 10
CN(CC(=O)Nc1ccc(-c2nnc3n2CCCCC3)cc1)C1CCS(=O)(=O)C1 (stereo unspecified)	> 10	> 10
COc1ccc(Nc2nnc(SC(C)C(=O)Nc3sccc3C(N)=O)s2)cc1 (stereo unspecified)	> 10	> 10
CCCCn1c(N)c(N(CC(C)C)C(=O)CCc2ncc(-c3ccc(C)cc3)o2)c(=O)[nH]c1=O	> 10	> 10
Nc1nnc(SCC(=O)N(Cc2ccccc2)c2nc(-c3ccc(Cl)cc3)cs2)[nH]1	> 10	> 10
CCOC(=O)c1ccc(N2CCN(C(=O)CCc3cc(C(C)(C)C)c(O)c(C(C)(C)C)c3)CC2)nc1	> 10	> 10
COc1ccc(-c2nn(-c3ccccc3)cc2/C=C/C(=O)OCc2ncc(Cl)n2C)cc1OC	> 10	> 10
Cc1cc(C)c(S(=O)(=O)N2CCN(C(=O)/C(=C/c3cccc(F)c3)n3nnnc3C)CC2)c(C)c1	1.61	3.73
CCC(C)c1ccccc1OS(=O)(=O)c1ccc2c(c1)NC(=O)CO2 (stereo unspecified)	> 10	> 10
O=C1/C(=C/c2ccc(SC(F)(F)F)cc2)SC(=S)N1CCN1CCOCC1	> 10	> 10
Cc1ccc(-n2nc(C)c(/C=C3\SC(=S)N(c4ccc(C(=O)O)cc4)C3=O)c2Cl)c(C)c1	9.42	> 10
Cc1nn(-c2ccccc2)c(Cl)c1CSc1nnc(/C=C/c2ccc(F)cc2)[nH]1	> 10	> 10
CC(c1nc(N)nc(N(C)C)n1)N(C)Cc1ccc(-c2ccc(Br)cc2)o1 (stereo unspecified)	> 10	> 10
CC(C)(C)c1ccc(NC(=O)Cc2csc(NC(=O)C3CC3)n2)cc1	> 10	> 10
CCOc1cc2c(cc1NC(=O)CCCCCn1c(=S)[nH]c3ccccc3c1=O)OC(C)C2 (stereo unspecified)	> 10	> 10
COc1ccc(-c2cc(NC(=O)C(C)NS(=O)(=O)c3ccc(C)cc3)ccc2OC(F)F)cc1 (stereo unspecified)	8.3	> 10
